Paper PMC5666424, “Marine-Derived 2-Aminoimidazolone Alkaloids. Leucettamine B-Related Polyandrocarpamines Inhibit Mammalian and Protozoan DYRK & CLK Kinases” (Marine Drugs, 2017)

Columns and labels:
Experiment in all cases: KinomeScan
Format in all cases: binding
Conditions in all cases: 1 μM
FER = target: T1, FER (Homo sapiens, UniProt P16591)
T1 construct: purchased DiscoverX (KINOMEscan)

FLT3(K663Q) = target: T2, FLT3(K663Q) (Homo sapiens, UniProt P36888, K663Q)
T2 construct: purchased DiscoverX (KINOMEscan)

WEE1 = target: T3, WEE1 (Homo sapiens, UniProt P30291)
T3 construct: purchased DiscoverX (KINOMEscan)

NEK11 = target: T4, NEK11 (Homo sapiens, UniProt Q8NG66)
T4 construct: purchased DiscoverX (KINOMEscan)

MERTK = target: T5, MERTK (Homo sapiens, UniProt Q12866)
T5 construct: purchased DiscoverX (KINOMEscan)

MRCKA = target: T6, MRCKA (Homo sapiens, UniProt Q5VT25)
T6 construct: purchased DiscoverX (KINOMEscan)

TGFBR2 = target: T7, TGFBR2 (Homo sapiens, UniProt P37173)
T7 construct: purchased DiscoverX (KINOMEscan)

CASK = target: T8, CASK (Homo sapiens, UniProt O14936)
T8 construct: purchased DiscoverX (KINOMEscan)

NEK6 = target: T9, NEK6 (Homo sapiens, UniProt Q9HC98)
T9 construct: purchased DiscoverX (KINOMEscan)

MLK1 = target: T10, MLK1 (Homo sapiens, UniProt P80192)
T10 construct: purchased DiscoverX (KINOMEscan)

FLT3(N841I) = target: T11, FLT3(N841I) (Homo sapiens, UniProt P36888, N841I)
T11 construct: purchased DiscoverX (KINOMEscan)

FGR = target: T12, FGR (Homo sapiens, UniProt P09769)
T12 construct: purchased DiscoverX (KINOMEscan)

HIPK1 = target: T13, HIPK1 (Homo sapiens, UniProt Q86Z02)
T13 construct: purchased DiscoverX (KINOMEscan)

EPHA4 = target: T14, EPHA4 (Homo sapiens, UniProt P54764)
T14 construct: purchased DiscoverX (KINOMEscan)

GRK7 = target: T15, GRK7 (Homo sapiens, UniProt Q8WTQ7)
T15 construct: purchased DiscoverX (KINOMEscan)

NEK5 = target: T16, NEK5 (Homo sapiens, UniProt Q6P3R8)
T16 construct: purchased DiscoverX (KINOMEscan)

CDKL3 = target: T17, CDKL3 (Homo sapiens, UniProt Q8IVW4)
T17 construct: purchased DiscoverX (KINOMEscan)

WEE2 = target: T18, WEE2 (Homo sapiens, UniProt P0C1S8)
T18 construct: purchased DiscoverX (KINOMEscan)

MEK3 = target: T19, MEK3 (Homo sapiens, UniProt P46734)
T19 construct: purchased DiscoverX (KINOMEscan)

AURKC = target: T20, AURKC (Homo sapiens, UniProt Q9UQB9)
T20 construct: purchased DiscoverX (KINOMEscan)

VEGFR2 = target: T21, VEGFR2 (Homo sapiens, UniProt P35968)
T21 construct: purchased DiscoverX (KINOMEscan)

SNRK = target: T22, SNRK (Homo sapiens, UniProt Q9NRH2)
T22 construct: purchased DiscoverX (KINOMEscan)

MAP4K5 = target: T23, MAP4K5 (Homo sapiens, UniProt Q9Y4K4)
T23 construct: purchased DiscoverX (KINOMEscan)

ACVR1B = target: T24, ACVR1B (Homo sapiens, UniProt P36896)
T24 construct: purchased DiscoverX (KINOMEscan)

ERK2 = target: T25, ERK2 (Homo sapiens, UniProt P28482)
T25 construct: purchased DiscoverX (KINOMEscan)

MAP4K4 = target: T26, MAP4K4 (Homo sapiens, UniProt O95819)
T26 construct: purchased DiscoverX (KINOMEscan)

NEK1 = target: T27, NEK1 (Homo sapiens, UniProt Q96PY6)
T27 construct: purchased DiscoverX (KINOMEscan)

ABL2 = target: T28, ABL2 (Homo sapiens, UniProt P42684)
T28 construct: purchased DiscoverX (KINOMEscan)

ZAP70 = target: T29, ZAP70 (Homo sapiens, UniProt P43403)
T29 construct: purchased DiscoverX (KINOMEscan)

GSK3A = target: T30, GSK3A (Homo sapiens, UniProt P49840)
T30 construct: purchased DiscoverX (KINOMEscan)

AAK1 = target: T31, AAK1 (Homo sapiens, UniProt Q2M2I8)
T31 construct: purchased DiscoverX (KINOMEscan)

YANK1 = target: T32, YANK1 (Homo sapiens, UniProt Q8WU08)
T32 construct: purchased DiscoverX (KINOMEscan)

MTOR = target: T33, MTOR (Homo sapiens, UniProt P42345)
T33 construct: purchased DiscoverX (KINOMEscan)

EGFR(G719C) = target: T34, EGFR(G719C) (Homo sapiens, UniProt P00533, G719C)
T34 construct: purchased DiscoverX (KINOMEscan)

CDK3 = target: T35, CDK3 (Homo sapiens, UniProt Q00526)
T35 construct: purchased DiscoverX (KINOMEscan)

CSNK1D = target: T36, CSNK1D (Homo sapiens, UniProt P48730)
T36 construct: purchased DiscoverX (KINOMEscan)

TIE1 = target: T37, TIE1 (Homo sapiens, UniProt P35590)
T37 construct: purchased DiscoverX (KINOMEscan)

BRAF = target: T38, BRAF (Homo sapiens, UniProt P15056)
T38 construct: purchased DiscoverX (KINOMEscan)

T28 sequence (P42684 whole entry): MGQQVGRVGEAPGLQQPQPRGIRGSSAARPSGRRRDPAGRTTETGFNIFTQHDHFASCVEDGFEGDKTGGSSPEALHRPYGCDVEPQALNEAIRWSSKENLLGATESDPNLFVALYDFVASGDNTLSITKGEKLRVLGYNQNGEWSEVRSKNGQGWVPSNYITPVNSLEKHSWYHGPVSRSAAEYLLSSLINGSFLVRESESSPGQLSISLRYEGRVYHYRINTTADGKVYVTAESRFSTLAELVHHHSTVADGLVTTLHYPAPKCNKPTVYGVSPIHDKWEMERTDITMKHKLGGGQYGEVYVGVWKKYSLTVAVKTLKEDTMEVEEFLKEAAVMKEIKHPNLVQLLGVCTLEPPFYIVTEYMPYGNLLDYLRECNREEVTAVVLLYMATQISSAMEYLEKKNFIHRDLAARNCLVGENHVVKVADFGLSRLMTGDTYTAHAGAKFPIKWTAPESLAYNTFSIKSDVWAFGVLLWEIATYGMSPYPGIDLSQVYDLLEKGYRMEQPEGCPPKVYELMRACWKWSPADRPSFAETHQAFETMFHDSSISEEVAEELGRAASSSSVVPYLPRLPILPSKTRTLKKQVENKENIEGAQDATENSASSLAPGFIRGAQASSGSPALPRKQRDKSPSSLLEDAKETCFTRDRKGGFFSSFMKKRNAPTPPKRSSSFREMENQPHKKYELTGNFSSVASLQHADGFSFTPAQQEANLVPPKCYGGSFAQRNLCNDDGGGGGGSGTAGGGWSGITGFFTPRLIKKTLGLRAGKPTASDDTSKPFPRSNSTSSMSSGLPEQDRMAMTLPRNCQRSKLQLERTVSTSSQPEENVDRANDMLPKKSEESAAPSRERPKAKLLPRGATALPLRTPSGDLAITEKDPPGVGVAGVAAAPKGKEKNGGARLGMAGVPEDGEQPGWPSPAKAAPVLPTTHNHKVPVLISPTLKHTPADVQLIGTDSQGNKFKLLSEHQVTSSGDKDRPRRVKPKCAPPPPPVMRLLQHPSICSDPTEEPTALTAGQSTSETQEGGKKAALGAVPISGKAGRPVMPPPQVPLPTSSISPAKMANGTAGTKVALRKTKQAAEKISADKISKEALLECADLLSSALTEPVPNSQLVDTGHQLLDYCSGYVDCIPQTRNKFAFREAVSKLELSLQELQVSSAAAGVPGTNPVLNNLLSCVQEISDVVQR
T25 sequence (P28482 whole entry): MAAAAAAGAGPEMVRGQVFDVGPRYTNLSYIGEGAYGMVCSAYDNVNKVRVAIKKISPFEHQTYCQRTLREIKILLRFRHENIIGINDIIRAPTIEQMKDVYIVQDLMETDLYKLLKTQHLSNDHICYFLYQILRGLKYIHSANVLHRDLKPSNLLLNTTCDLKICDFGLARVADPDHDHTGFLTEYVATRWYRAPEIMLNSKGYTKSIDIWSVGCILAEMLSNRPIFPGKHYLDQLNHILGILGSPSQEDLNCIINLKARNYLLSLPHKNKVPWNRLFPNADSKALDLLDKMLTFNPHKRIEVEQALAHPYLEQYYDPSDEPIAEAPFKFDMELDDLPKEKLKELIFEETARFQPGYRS
T12 sequence (P09769 whole entry): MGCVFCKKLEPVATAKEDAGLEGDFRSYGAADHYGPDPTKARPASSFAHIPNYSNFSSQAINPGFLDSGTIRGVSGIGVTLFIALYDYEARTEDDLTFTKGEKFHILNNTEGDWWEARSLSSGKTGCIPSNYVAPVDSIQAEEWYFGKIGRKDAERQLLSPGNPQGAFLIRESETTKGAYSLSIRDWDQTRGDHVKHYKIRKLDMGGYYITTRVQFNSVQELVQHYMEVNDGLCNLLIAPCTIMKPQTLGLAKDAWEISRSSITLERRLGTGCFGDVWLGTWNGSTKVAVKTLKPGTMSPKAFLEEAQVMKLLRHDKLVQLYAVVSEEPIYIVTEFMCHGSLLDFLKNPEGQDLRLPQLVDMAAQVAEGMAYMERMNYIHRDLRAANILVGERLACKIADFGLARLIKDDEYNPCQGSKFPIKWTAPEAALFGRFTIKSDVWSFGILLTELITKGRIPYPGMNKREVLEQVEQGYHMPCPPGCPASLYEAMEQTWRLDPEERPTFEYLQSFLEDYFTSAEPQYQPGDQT
T8 sequence (O14936 whole entry): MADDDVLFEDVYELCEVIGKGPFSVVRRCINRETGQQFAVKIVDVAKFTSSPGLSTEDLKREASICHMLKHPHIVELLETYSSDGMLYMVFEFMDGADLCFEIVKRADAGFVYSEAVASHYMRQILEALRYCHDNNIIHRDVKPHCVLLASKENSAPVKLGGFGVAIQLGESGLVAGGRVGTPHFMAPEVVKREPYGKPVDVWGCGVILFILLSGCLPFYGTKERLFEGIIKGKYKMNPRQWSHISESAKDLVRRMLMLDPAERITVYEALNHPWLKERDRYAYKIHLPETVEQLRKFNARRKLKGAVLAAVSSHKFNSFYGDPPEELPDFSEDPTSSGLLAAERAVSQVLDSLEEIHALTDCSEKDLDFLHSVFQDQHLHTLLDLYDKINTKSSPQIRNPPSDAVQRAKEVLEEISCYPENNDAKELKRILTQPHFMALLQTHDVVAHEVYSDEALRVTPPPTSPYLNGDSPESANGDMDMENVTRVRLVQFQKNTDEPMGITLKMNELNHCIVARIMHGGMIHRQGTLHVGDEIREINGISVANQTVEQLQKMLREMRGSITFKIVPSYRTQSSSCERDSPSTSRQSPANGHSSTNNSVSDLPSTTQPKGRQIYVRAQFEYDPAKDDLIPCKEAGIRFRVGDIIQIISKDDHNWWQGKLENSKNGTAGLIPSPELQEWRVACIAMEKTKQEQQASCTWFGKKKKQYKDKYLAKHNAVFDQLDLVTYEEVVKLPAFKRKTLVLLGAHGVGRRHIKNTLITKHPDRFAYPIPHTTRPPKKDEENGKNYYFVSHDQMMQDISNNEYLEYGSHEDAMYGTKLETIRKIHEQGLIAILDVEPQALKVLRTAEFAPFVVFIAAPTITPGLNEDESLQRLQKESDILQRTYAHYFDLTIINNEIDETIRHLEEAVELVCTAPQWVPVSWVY
T36 sequence (P48730 whole entry): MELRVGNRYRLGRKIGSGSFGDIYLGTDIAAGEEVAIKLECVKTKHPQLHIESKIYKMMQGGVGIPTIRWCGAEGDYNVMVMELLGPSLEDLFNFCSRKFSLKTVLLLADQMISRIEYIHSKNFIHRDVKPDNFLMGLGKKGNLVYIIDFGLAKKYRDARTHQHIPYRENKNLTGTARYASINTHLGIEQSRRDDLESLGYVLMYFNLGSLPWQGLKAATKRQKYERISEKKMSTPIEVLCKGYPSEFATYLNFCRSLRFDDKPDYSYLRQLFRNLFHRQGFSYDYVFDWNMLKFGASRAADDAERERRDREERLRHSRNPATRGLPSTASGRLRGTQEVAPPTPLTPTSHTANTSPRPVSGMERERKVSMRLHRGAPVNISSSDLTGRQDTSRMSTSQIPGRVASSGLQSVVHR
T14 sequence (P54764 20-986): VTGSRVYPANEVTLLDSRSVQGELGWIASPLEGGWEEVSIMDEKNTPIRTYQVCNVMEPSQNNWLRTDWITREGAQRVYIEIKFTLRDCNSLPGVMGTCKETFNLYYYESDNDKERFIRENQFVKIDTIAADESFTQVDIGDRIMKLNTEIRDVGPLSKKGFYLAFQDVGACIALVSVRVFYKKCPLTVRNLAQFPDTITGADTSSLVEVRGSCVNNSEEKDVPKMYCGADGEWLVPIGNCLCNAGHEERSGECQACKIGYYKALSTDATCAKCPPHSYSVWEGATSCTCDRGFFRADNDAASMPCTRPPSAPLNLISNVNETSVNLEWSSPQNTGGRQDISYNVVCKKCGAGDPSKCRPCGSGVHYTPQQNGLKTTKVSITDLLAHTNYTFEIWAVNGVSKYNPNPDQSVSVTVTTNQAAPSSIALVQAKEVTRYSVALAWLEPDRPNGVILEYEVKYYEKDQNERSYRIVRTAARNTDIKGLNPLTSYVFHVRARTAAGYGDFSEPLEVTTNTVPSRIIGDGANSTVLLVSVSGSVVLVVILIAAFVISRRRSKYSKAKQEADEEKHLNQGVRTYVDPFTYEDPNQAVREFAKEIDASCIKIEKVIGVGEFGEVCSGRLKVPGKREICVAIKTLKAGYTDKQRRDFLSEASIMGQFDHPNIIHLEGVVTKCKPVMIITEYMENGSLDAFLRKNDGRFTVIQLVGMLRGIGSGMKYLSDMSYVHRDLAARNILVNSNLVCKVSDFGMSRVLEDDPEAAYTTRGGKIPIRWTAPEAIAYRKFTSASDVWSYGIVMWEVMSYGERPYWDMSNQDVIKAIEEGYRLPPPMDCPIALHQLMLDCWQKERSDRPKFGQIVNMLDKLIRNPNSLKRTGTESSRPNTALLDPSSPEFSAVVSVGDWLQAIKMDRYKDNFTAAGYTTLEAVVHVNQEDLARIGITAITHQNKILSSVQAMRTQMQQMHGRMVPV
T30 sequence (P49840 whole entry): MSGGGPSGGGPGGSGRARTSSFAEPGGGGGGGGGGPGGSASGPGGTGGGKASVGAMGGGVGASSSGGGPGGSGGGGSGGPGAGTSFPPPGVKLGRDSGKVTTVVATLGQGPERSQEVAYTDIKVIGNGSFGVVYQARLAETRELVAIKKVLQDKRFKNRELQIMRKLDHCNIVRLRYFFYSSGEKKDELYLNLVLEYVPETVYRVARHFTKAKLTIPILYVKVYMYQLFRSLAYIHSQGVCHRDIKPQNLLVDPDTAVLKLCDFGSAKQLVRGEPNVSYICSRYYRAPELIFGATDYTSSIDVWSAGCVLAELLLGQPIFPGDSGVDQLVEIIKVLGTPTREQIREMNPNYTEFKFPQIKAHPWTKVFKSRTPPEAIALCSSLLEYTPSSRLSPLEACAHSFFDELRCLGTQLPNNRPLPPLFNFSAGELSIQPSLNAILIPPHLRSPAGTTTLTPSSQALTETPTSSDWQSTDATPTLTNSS

SMILES: COc1cc(/C=C2\N=C(N)NC2=O)ccc1O [Polyandrocarpamine A]
- Score (FER): 100
- Score (FLT3(K663Q)): 100
- Score (WEE1): 100
- Score (NEK11): 100
- Score (MERTK): 100
- Score (MRCKA): 100
- Score (TGFBR2): 100
- Score (CASK): 100
- Score (NEK6): 100
- Score (MLK1): 100
- Score (FLT3(N841I)): 100
- Score (FGR): 100
- Score (HIPK1): 52
- Score (EPHA4): 83
- Score (GRK7): 100
- Score (NEK5): 95
- Score (CDKL3): 100
- Score (WEE2): 100
- Score (MEK3): 98
- Score (AURKC): 99
- Score (VEGFR2): 100
- Score (SNRK): 100
- Score (MAP4K5): 100
- Score (ACVR1B): 81
- Score (ERK2): 100
- Score (MAP4K4): 98
- Score (NEK1): 100
- Score (ABL2): 87
- Score (ZAP70): 100
- Score (GSK3A): 100
- Score (AAK1): 100
- Score (YANK1): 100
- Score (MTOR): 84
- Score (EGFR(G719C)): 95
- Score (CDK3): 100
- Score (CSNK1D): 70
- Score (TIE1): 81
- Score (BRAF): 100
